Results reported in patent US7238670B2, “Human glucagon-like-peptide-1 mimics and their use in the treatment of diabetes and related conditions” (Bristol-Myers Squibb Company, priority 2001, dated 2007).
Where two headings read alike, the source gives them in different places.

Molecular target: T1, human glucagon-like peptide 1 receptor (Homo sapiens, UniProt P43220)
T1 construct: Full-length human glucagon-like peptide 1 receptor was stably expressed in CHO-K1 cells; expressed in transfected cells; host or cells: CHO-K1 (clone CHO-GLP1R-19)
Test: Cyclic AMP determination in CHO-K1 cells stably expressing the GLP-1 receptor (cAMP SPA)
Type: cell-based
Details: CHO-GLP1R-19 cells, read-out: EC50, stimulation of cAMP production
Protocol: CHO-GLP-1R-19 cells (2,500 in 100 μl of media) were plated into each well of a 96-well tissue culture microtiter plate and incubated in 5% CO2 atmosphere at 37° C., for 72 h. On the day of the assay, cells were washed once with 100 μl of PBS. […] After incubation at room temperature for 15-18 h, plates were counted 2 min each/well in a TopCount NXT(Packard).
The data obtained was processed in Excel-fit database. From a cyclic AMP standard curve, the amounts of released cAMP were determined and the % maximal activity was calculated and plotted against log compound concentration. The data was analyzed by nonlinear regression curve fit (sigmoidal dose) to determine the EC50 of the compounds.

T1 sequence (P43220 24-463): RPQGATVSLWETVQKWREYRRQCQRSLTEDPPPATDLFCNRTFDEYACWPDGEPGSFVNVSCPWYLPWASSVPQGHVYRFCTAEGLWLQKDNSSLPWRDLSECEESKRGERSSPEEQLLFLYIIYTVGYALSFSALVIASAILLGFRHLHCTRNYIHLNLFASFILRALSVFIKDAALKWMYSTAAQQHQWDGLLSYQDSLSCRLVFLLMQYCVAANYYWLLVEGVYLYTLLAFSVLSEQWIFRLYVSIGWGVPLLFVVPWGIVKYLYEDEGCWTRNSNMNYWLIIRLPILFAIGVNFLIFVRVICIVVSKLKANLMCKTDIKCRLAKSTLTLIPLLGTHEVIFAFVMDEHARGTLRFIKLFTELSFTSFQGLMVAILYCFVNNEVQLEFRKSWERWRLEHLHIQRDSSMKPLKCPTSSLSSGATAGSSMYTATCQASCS

Row | SMILES | EC50 (same assay) | EC50 (determined as in Example 13)
1 | C[C@H](NC(=O)[C@@H](N)Cc1c[nH]cn1)C(=O)N[C@@H](CCC(=O)O)C(=O)NCC(=O)N[C@H](C(=O)N[C@@H](Cc1ccccc1)C(=O)N[C@H](C(=O)N[C@@H](CO)C(=O)N[C@@H](CC(=O)O)C(N)=O)[C@@H](C)O)[C@@H](C)O | > 1000 µM | 
2 | C[C@H](NC(=O)[C@@H](N)Cc1cnc[nH]1)C(=O)N[C@@H](CCC(=O)O)C(=O)NCC(=O)N[C@H](C(=O)N[C@@H](Cc1ccccc1)C(=O)N[C@H](C(=O)N[C@@H](CO)C(=O)N[C@@H](CC(=O)O)C(=O)N[C@@H](Cc1ccc(-c2ccccc2)cc1)C(=O)N[C@@H](Cc1ccc(-c2ccccc2)cc1)C(N)=O)[C@@H](C)O)[C@@H](C)O [GLP-1 11-mer peptide analog, His-Ala-Clu-Gly-Thr-Phe-Thr-Ser-Asp-Bip-Bip-NH2] |  | 1.1 µM
